# From patent US12209096B2, “Compounds and compositions for inducing chondrogenesis” (NOVARTIS AG, priority 2017, dated 2025)
# Where two headings read alike, the source gives them in different places.
# What was measured:
# [1] = tested on: normal human articular chondrocytes (NHACs); assay: alkaline phosphatase assay in NHAC; type: cell-based; details: 10 days; for Emax: read-out: (C) % Efficacy; for IC50: read-out: (C) IC50
# Protocol: To initiate differentiation in NHACs, 16,000 cells were plated/well in Costar 96 well plate in CGM media (Lonza). After 24 hours the MSCGM was removed and replaced with DMEM containing 1% FBS. The test compound was then added to each well at the indicated dose. The cultures were grown at 37° C. for 10 days.
# To detect the presence of hypertrophic cells, NHACs were fixed with 10% formalin and Hoeschst dye for 20 minutes, rinsed in PBS, then stained with Fast Blue RR Salt with Naphthol AS-MX Phosphate Alkaline Solution.
# (§1) The total intensity of staining was imaged by fluoresecent microscopy, using the 651 wavelength, and/or quantified by high content imagining with the ImageXpress Micro (Molecular Devices, Sunnyvale, CA). Data analyses were performed with the customized multiwavelength cell-scoring application.
# [2] = tested on: human chondrogenic progenitor cell (CPCs); assay: Collagen type II assay (chondrogenic differentiation); type: cell-based; details: 432 h, hCPCs, 18 days; for Emax: read-out: (B) % Efficacy; for EC50: read-out: (B) EC50
# Protocol: To initiate chondrogenesis in primary CPCs, 8000 cells were plated/well in a Costar 96 well plate in MSCGM. After 24 hours the MSCGM was removed and replaced with DMEM containing 1% FBS. The test compound was then added to each well at the indicated dose. The cultures were grown at 37° C. for 18 days. A media supplement of an additional 50 μl of DMEM containing 1% FBS was given 10 days after chondrogenic induction.
# To detect the presence of Collagen type II, hCPCs were fixed with 10% formalin for 20 minutes, permeablized with PBS containing 0.1% triton X-100, 0.2 mg/ml of Collagenase 2 for 10 minutes, blocked with PBS containing 5% BSA for 1 hr at room temperature, followed by incubation with primary antibody (anti-type II collagen antibody) in PBS containing 1% BSA overnight at 4° C. Cells were washed 3 times with PBS and incubated with fluorophore-conjugated secondary antibody and Hoechst dye for 1 hour at room temperature, followed by washing with PBS for 3 times.
# The total intensity of staining was imaged by fluoresecent microscopy and/or quantified by high content imagining with the ImageXpress Micro (Molecular Devices, Sunnyvale, CA). Data analyses were performed with the customized multiwavelength cell-scoring application.
# C3H10T1/2 cell line = assay: alkaline phosphatase assay in C3H10T1/2; type: cell-based; details: alkaline phosphatase assay in C3H10T1/2, 6 days; for Emax: read-out: (D) % Efficacy; for IC50: read-out: (D) IC50
# Protocol: To initiate differentiation in C3H10T1/2, Clone 8 (ATCC cat #CCL-226), 4,000 cells were plated/well in 384 Perkin Elmer CellCarrier Ultra plate in DMEM/High glucose (HyClone cat #SH30022.01) containing 10% FBS and 1× Antibiotic/Antimycotic (HyClone cat #SV30079.01). After 24 hours the test compound was then added to each well at the indicated dose. The cultures were grown at 37° C. for 6 days.
# To detect the presence of hypertrophic cells, C3H10T1/2 were fixed with 4% paraformaldehyde and Hoeschst dye for 20 minutes, rinsed in PBS, then stained with Fast Blue RR Salt with Naphthol AS-MX Phosphate Alkaline Solution.
# as §1, with “ALP” for “total intensity of”, “561” for “651”, “Micro Confocal” for “Micro”, “application looking at the number of ALP positive cells per well.” for “application.”
# NHACs = assay: calcium flux assay; type: cell-based, human; details: for Emax: read-out: (A) % Efficacy
# Method in brief: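 FLIPR fluorescence (ex 470–495 nm, em 515–575 nm) was read before and after compound dispense at the indicated dose. Chondrocytes (NHACs), 2000 cells/well, had been dye-loaded 24 h after plating with Calcium 5 in HBSS/HEPES plus 5 mM probenecid, 1 h, room temperature.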
# [3] = Homo sapiens, Chondrocyte, 240 h
# [4] = Mus musculus, C3H 10T1/2, 144 h
IC50 (C3H10T1/2 cell line; [4]),EC50 (NHACs; Homo sapiens),(C) % Efficacy [1],IC50 [1],IC50 (C3H10T1/2 cell line),EC50 (NHACs),SMILES,"Emax [1, 3]","IC50 [1, 3]",Emax [2],EC50 [2],Emax (C3H10T1/2 cell line; [4]),Emax (NHACs; Homo sapiens),(D) % Efficacy (C3H10T1/2 cell line),(A) % Efficacy (NHACs)
> 20 µM,> 50 µM,,,,,"O=C(Nc1ccc(Cl)c(Cl)c1)[C@H]1[C@@H](c2ccnc(F)c2)[C@H]2O[C@@H]1C[C@@H]2O (single isomer, unassigned) [Example 52a]",71%,17 µM,80%,0.49 µM,36%,96%,,
> 20 µM,> 50 µM,,,,,"Cc1cc([C@H]2[C@H]3O[C@H](C[C@@H]3O)[C@H]2C(=O)Nc2ccc(Cl)c(Cl)c2)ccn1 (single isomer, unassigned) [Example 53a]",83%,31 µM,44%,13 µM,0%,12%,,
> 20 µM,26 µM,,,,,"Cc1cc([C@H]2[C@H]3O[C@H](C[C@@H]3O)[C@@H]2C(=O)Nc2ccc(Cl)c(Cl)c2)ccn1 (single isomer, unassigned) [Example 77a]",114%,3.5 µM,120%,0.69 µM,45%,182%,,
> 20 µM,> 50 µM,,,,,"O=C(Nc1cnc(Cl)c(Cl)c1)[C@@H]1[C@@H](c2ccnc(F)c2)[C@H]2O[C@@H]1C[C@@H]2O (single isomer, unassigned) [Example 90a]",98%,> 50 µM,65%,2.3 µM,48%,101%,,
6.6 µM,22 µM,,,,,"O=C(Nc1ccc(Cl)c(Cl)c1)[C@@H]1[C@@H](c2ccnc(F)c2)[C@H]2O[C@@H]1C[C@@H]2O (single isomer, unassigned) [Example 142a]",93%,33 µM,83%,1.2 µM,81%,68%,,

# Further lines, the compound ahead of its results:
SMILES,IC50 (C3H10T1/2 cell line; [4]),EC50 (NHACs; Homo sapiens),(C) % Efficacy [1],IC50 [1],IC50 (C3H10T1/2 cell line),EC50 (NHACs),"Emax [1, 3]","IC50 [1, 3]",Emax [2],EC50 [2],Emax (C3H10T1/2 cell line; [4]),Emax (NHACs; Homo sapiens),(D) % Efficacy (C3H10T1/2 cell line),(A) % Efficacy (NHACs)
"O=C(Nc1cccc(C(F)(F)F)c1)[C@H]1[C@@H](c2ccncc2)[C@H]2O[C@@H]1C[C@@H]2O (single isomer, unassigned) [Example 11a]",> 20 µM,0.27 µM,,,,,65%,48 µM,91%,2.9 µM,6%,98%,,
"Cc1cc([C@H]2[C@H]3O[C@H]([C@@H]4C[C@@H]43)[C@H]2C(=O)Nc2ccc(Cl)c(Cl)c2)ccn1 (single isomer, unassigned) [Example 23a]",> 20 µM,6.1 µM,,,,,100%,30 µM,29%,0.78 µM,28%,99%,,
"O=C(Nc1ccc(Cl)c(Cl)c1)[C@H]1[C@@H](c2ccncc2)[C@H]2O[C@@H]1C[C@@H]2O (single isomer, unassigned) [Example 47a]",> 20 µM,> 50 µM,,,,,88%,33 µM,82%,2.1 µM,23%,68%,,
"Cc1cc([C@H]2[C@H]3O[C@H](C[C@@H]3O)[C@@H]2C(=O)Nc2cnc(Cl)c(Cl)c2)ccn1 (single isomer, unassigned) [Example 83]",> 20 µM,> 50 µM,,,,,106%,12 µM,150%,1.5 µM,34%,38%,,
"Cc1cc([C@H]2[C@H]3O[C@H]([C@H](O)[C@@H]3O)[C@@H]2C(=O)Nc2ccc(Cl)c(Cl)c2)ccn1 (single isomer, unassigned) [Example 156]",> 20 µM,18 µM,,,,,103%,15 µM,99%,0.95 µM,42%,28%,,
"Cc1cc([C@@H]2[C@@H]3O[C@@H]([C@@H](O)[C@H]3O)[C@H]2C(=O)Nc2ccc(Cl)c(Cl)c2)ccn1 (single isomer, unassigned) [Example 157]",> 20 µM,29 µM,,,,,84%,32 µM,59%,2.1 µM,15%,57%,,
"Cc1cc([C@H]2[C@H]3O[C@H](C[C@@H]3O)[C@H]2C(=O)Nc2cccc(C(F)(F)F)c2)ccn1 [Example 8, (1R,2S,3S,4R,5S)-5-hydroxy-3-(2-methylpyridin-4-yl)-N-[3-(trifluromethyl)phenyl]-7-oxabicyclo[2.2.1]heptane-2-carboxamide]",> 20 µM,> 50 µM,,,,,62%,> 31 µM,,,16%,50%,,
O=C(Nc1ccc(Cl)c(Cl)c1)[C@@H]1[C@@H]2O[C@@H]([C@H]3C[C@H]32)[C@@H]1c1cncnc1 [Example 27],,,71%,34 µM,> 20 µM,13 µM,,,,,,,48%,120%
"Cc1cc([C@H]2[C@H]3O[C@H](C[C@H]3N(C)C)[C@@H]2C(=O)Nc2ccc(Cl)c(Cl)c2)ccn1 [Example 166, (1R,2R,3S,4R,5R)—N-(3,4-dichlorophenyl)-5-(dimethylamino)-3-(2-methylpyridin-4-yl)-7-oxabicyclo[2.2.1]heptane-2-carboxamide]",> 20 µM,24 µM,,,,,,,,,0%,68%,,
"Cc1cc([C@H]2[C@H]3O[C@H](C[C@H]3NCCO)[C@@H]2C(=O)Nc2ccc(Cl)c(Cl)c2)ccn1 [Example 168, (1R,2R,3S,4R,5R)—N-(3,4-dichlorophenyl)-5-((2-hydroxyethyl)amino)-3-(2-methylpyridin-4-yl)-7-oxabicyclo[2.2.1]heptane-2-carboxamide]",> 20 µM,0.32 µM,,,,,,,,,0%,114%,,
"Cc1cc([C@H]2[C@H]3O[C@H](C[C@H]3NC3CCOCC3)[C@@H]2C(=O)Nc2ccc(Cl)c(Cl)c2)ccn1 [Example 169, (1R,2R,3S,4R,5R)—N-(3,4-dichlorophenyl)-3-(2-methylpyridin-4-yl)-5-((tetrahydro-2H-pyran-4-yl)amino)-7-oxabicyclo[2.2.1]heptane-2-carboxamide]",> 20 µM,> 50 µM,,,,,,,,,54%,69%,,
"Cc1cc([C@H]2[C@H]3O[C@H](C[C@H]3N3CCOCC3)[C@@H]2C(=O)Nc2ccc(Cl)c(Cl)c2)ccn1 [Example 177, (1R,2R,3S,4R,5R)—N-(3,4-dichlorophenyl)-3-(2-methylpyridin-4-yl)-5-morpholino-7-oxabicyclo[2.2.1]heptane-2-carboxamide]",1.5 µM,22 µM,,,,,33%,> 50 µM,34%,1.5 µM,103%,211%,,
"Cc1cc([C@H]2[C@H]3O[C@H](C[C@H]3O)[C@@H]2C(=O)Nc2ccc(Cl)c(Cl)c2)ccn1 [Example 180, (1R,2R,3S,4R,5R)—N-(3,4-dichlorophenyl)-5-hydroxy-3-(2-methylpyridin-4-yl)-7-oxabicyclo[2.2.1]heptane-2-carboxamide]",11 µM,30 µM,,,,,,,,,69%,113%,,
"Cc1cc([C@@H]2[C@@H]3O[C@@H](C[C@@H]3O)[C@H]2C(=O)Nc2ccc(Cl)c(Cl)c2)ccn1 [Example 181, (1S,2S,3R,4S,5S)—N-(3,4-dichlorophenyl)-5-hydroxy-3-(2-methylpyridin-4-yl)-7-oxabicyclo[2.2.1]heptane-2-carboxamide]",> 20 µM,27 µM,,,,,,,,,28%,243%,,
